In ChEMBL document CHEMBL1909638, “Amide isosteres in structure-activity studies of antibacterial minor groove binders” (2011):
In brackets after ≈: the same amount, converted by molar mass.

Assays:
Staphylococcus aureus [1] = test: Antibacterial activity against Staphylococcus aureus isolate 2 by resazurine microtiter assay; assay type: functional
Aspergillus niger = test: Antifungal activity against Aspergillus niger by resazurine microtiter assay; assay type: functional
Staphylococcus aureus [2] = test: Antibacterial activity against Staphylococcus aureus isolate 1 by resazurine microtiter assay; assay type: functional
Candida albicans = test: Antifungal activity against Candida albicans by resazurine microtiter assay; assay type: functional
Nucleic Acid [3] = test: Binding affinity to 5'-GCGATATATGCG-3' DNA sequence in PBS buffer of pH 7.4 assessed as increase in melting temperature by UV-VIS spectrophotometric analysis; assay type: nucleic-acid assay
Nucleic Acid [4] = test: Binding affinity to 5'-GCGATATATGCG-3' DNA sequence in PBS buffer of pH 7.4 assessed as change in melting temperature by UV-VIS spectrophotometric analysis; assay type: nucleic-acid assay
Enterococcus faecalis = test: Antibacterial activity against Streptococcus faecalis by resazurine microtiter assay; assay type: functional
Mycolicibacterium aurum = test: Antimycobacterial activity against Mycobacterium aurum at 37 degC using Mueller-Hinton broth by resazurine microtiter assay; assay type: functional
Staphylococcus aureus [5] = test: Antibacterial activity against Staphylococcus aureus by resazurine microtiter assay; assay type: functional
Staphylococcus aureus [6] = test: Antibacterial activity against Staphylococcus aureus at 200 uM by resazurine microtiter assay; assay type: functional; set-up: scale not given here

| Structure (SMILES) | ΔTm (Nucleic Acid [3]) [°C] | ΔTm (Nucleic Acid [4]) [°C] | MIC (Mycolicibacterium aurum) [µM] | MIC (Staphylococcus aureus [5]) [µM] | Activity (Staphylococcus aureus [6]) [%] | further results |
| --- | --- | --- | --- | --- | --- | --- |
| Cn1cc(NC(=O)c2cc(NC(=O)c3ccc(/C=C/c4cnc5ccccc5c4)cc3)cn2C)cc1C(=O)NCCN1CCOCC1 [MGB-BP-3] | 19 | 18 |  |  |  | MIC (Staphylococcus aureus [1]): 12.5 µM (≈ 7.9 µg/mL); MIC (Aspergillus niger): 50 µM (≈ 31.6 µg/mL); MIC (Staphylococcus aureus [2]): 3.1 µM (≈ 1.96 µg/mL); MIC (Candida albicans): 25 µM (≈ 15.8 µg/mL); MIC (Enterococcus faecalis): 25 µM (≈ 15.8 µg/mL) |
| CN(C)c1ccc(C(=O)Nc2ccc(C(=O)Nc3cc(C(=O)Nc4cc(C(=O)NCCN5CCOCC5)n(C)c4)n(C)c3)cc2)cc1 |  | 18 |  |  |  |  |
| Cn1cc(NC(=O)c2cc(NC(=O)c3ccc(/N=N/c4cnc5ccccc5c4)cc3)cn2C)cc1C(=O)NCCN1CCOCC1 |  | 17 |  |  |  | MIC (Staphylococcus aureus [1]): > 100 µM; MIC (Aspergillus niger): 50 µM (≈ 31.7 µg/mL); MIC (Staphylococcus aureus [2]): > 100 µM; MIC (Candida albicans): 25 µM (≈ 15.8 µg/mL); MIC (Enterococcus faecalis): > 100 µM |
| Cn1cc(NC(=O)c2cc(NC(=O)c3ccc(NC(=O)c4cnc5ccccc5c4)cc3)cn2C)cc1C(=O)NCCN1CCOCC1 |  | 17 |  |  |  |  |
| CCC(C)n1cc(NC(=O)c2ccc(/C=C/c3cnc4ccccc4c3)cc2)cc1C(=O)Nc1cc(C(=O)NCCN2CCOCC2)n(C)c1 (stereo not given) | 15 |  | 2 (≈ 1.35 µg/mL) | < 1 | 2.9 |  |
| COc1cccc(/C=C/c2ccc(C(=O)Nc3cc(C(=O)Nc4cc(C(=O)NCCN5CCOCC5)n(C)c4)n(C)c3)cc2)c1 |  |  |  |  |  | MIC (Staphylococcus aureus [1]): 25 µM (≈ 15.3 µg/mL); MIC (Aspergillus niger): 50 µM (≈ 30.5 µg/mL); MIC (Staphylococcus aureus [2]): 12.5 µM (≈ 7.63 µg/mL); MIC (Candida albicans): 100 µM (≈ 61.1 µg/mL); MIC (Enterococcus faecalis): 6.25 µM (≈ 3.82 µg/mL) |
| COc1cccc(C(=O)Nc2ccc(C(=O)Nc3cc(C(=O)Nc4cc(C(=O)NCCN5CCOCC5)n(C)c4)n(C)c3)cc2)c1 |  | 10 |  |  |  |  |
| COc1ccc(/C=C/c2ccc(C(=O)Nc3cc(C(=O)Nc4cc(C(=O)NCCN5CCOCC5)n(C)c4)n(C(C)C)c3)nc2)cc1 | 19 |  | 8 (≈ 5.12 µg/mL) | 16 (≈ 10.2 µg/mL) | 6.7 |  |
| CC(C)n1cc(NC(=O)c2cc(NC(=O)c3ccc(/C=C/c4cnc5ccccc5c4)cc3)cn2C)cc1C(=O)NCCN1CCOCC1 | 10 |  | 2 (≈ 1.32 µg/mL) | < 1 | 0.8 |  |
| CCC(C)n1cc(NC(=O)c2cc(NC(=O)c3ccc(/C=C/c4cnc5ccccc5c4)cc3)cn2C)cc1C(=O)NCCN1CCOCC1 (stereo not given) | 0 |  |  |  | 0.3 |  |
| CC(C)n1cc(NC(=O)c2ccc(/C=C/c3cnc4ccccc4c3)cc2)cc1C(=O)Nc1cc(C(=O)NCCN2CCOCC2)n(C)c1 | 18 |  | 2 (≈ 1.32 µg/mL) | < 1 | 2.3 |  |
| COc1ccc(/C=C/c2ccc(C(=O)Nc3cc(C(=O)Nc4cc(C(=O)NCCN5CCOCC5)n(C)c4)n(C)c3)nc2)cc1 | 16 |  |  |  |  |  |
| CN(C)c1ccc(/N=N/c2ccc(C(=O)Nc3cc(C(=O)Nc4cc(C(=O)NCCN5CCOCC5)n(C)c4)n(C)c3)cc2)cc1 |  | 8 |  |  |  |  |
| CN(C)c1ccc(/C=C/c2ccc(C(=O)Nc3cc(C(=O)Nc4cc(C(=O)NCCN5CCOCC5)n(C)c4)n(C)c3)cc2)cc1 |  | 2 |  |  |  | MIC (Staphylococcus aureus [1]): > 100 µM; MIC (Aspergillus niger): > 100 µM; MIC (Staphylococcus aureus [2]): > 100 µM; MIC (Candida albicans): 100 µM (≈ 62.4 µg/mL); MIC (Enterococcus faecalis): > 100 µM |
| COc1cccc(/N=N/c2ccc(C(=O)Nc3cc(C(=O)Nc4cc(C(=O)NCCN5CCOCC5)n(C)c4)n(C)c3)cc2)c1 |  | 1 |  |  |  |  |
| CCC(C)n1cc(NC(=O)c2cc(NC(=O)c3ccc(/C=C/c4ccc(OC)cc4)cn3)cn2C)cc1C(=O)NCCN1CCOCC1 (stereo not given) | 13 |  | 16 (≈ 10.5 µg/mL) | 16 (≈ 10.5 µg/mL) | 2.8 |  |
| CCC(C)n1cc(NC(=O)c2ccc(/C=C/c3ccc(OC)cc3)cn2)cc1C(=O)Nc1cc(C(=O)NCCN2CCOCC2)n(C)c1 (stereo not given) | 16 |  | 31 (≈ 20.3 µg/mL) | 8 (≈ 5.23 µg/mL) | 3.2 |  |
| COc1ccc(/C=C/c2ccc(C(=O)Nc3cc(C(=O)Nc4cc(C(=O)NCCN5CCOCC5)n(C(C)C)c4)n(C)c3)nc2)cc1 | 16 |  | 8 (≈ 5.12 µg/mL) | 4 (≈ 2.56 µg/mL) | 8.5 |  |
